From ChEMBL document CHEMBL1201862, “PubChem BioAssay data set” (2004)
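A five-concentration, 48-hour dose response in 96-well plates underlies each endpoint, interpolated linearly between surrounding concentrations. At the GI50, growth is halved.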 Calls of active or inactive are those of the source. Rule as the data show it: active = GI50 up to about 1.1 µM and inactive = higher.

Experiments:
Test in all cases: NCI anticancer screen, dose series, 48 h
[1] = tested on: EKVX
[2] = tested on: SK-MEL-28
[3] = tested on: DU-145
[4] = tested on: MDA-MB-435
[5] = tested on: SK-MEL-2
[6] = tested on: MCF7
[7] = tested on: HCT-116
[8] = tested on: SNB-75
[9] = tested on: SF-268
[10] = tested on: IGROV-1
[11] = tested on: LOX IMVI
[12] = tested on: SN12C
[13] = tested on: SNB-19
[14] = tested on: HCC 2998
[15] = tested on: KM12
[16] = tested on: CAKI-1
[17] = tested on: A498
[18] = tested on: OVCAR-8
[19] = tested on: TK-10

Compound	GI50 [1]	GI50 [2]	GI50 [3]	GI50 [4]	GI50 [5]	GI50 [6]	GI50 [7]	GI50 [8]	GI50 [9]	GI50 [10]	GI50 [11]	GI50 [12]	GI50 [13]	GI50 [14]	GI50 [15]	GI50 [16]	GI50 [17]	GI50 [18]	GI50 [19]
COC(=O)C(C)(C)NC(=O)C(Cc1ccccc1)Nc1ncnc2c1ncn2-c1ccc(OC)cc1 (stereo unspecified)	10.8 µM (inactive)	33.6 µM (inactive)	47.3 µM (inactive)	14.9 µM (inactive)	37.5 µM (inactive)	23 µM (inactive)	28.2 µM (inactive)	24.1 µM (inactive)	31 µM (inactive)	15 µM (inactive)	34.2 µM (inactive)	85.1 µM (inactive)	> 100 µM (inactive)	50.7 µM (inactive)	25.6 µM (inactive)	32.7 µM (inactive)	20.1 µM (inactive)	48.2 µM (inactive)	> 100 µM (inactive)
C=C(C)C(=O)OC1CC2(C)OC(=CC2=O)C(C)CC2OC(=O)C(=C)C12 (stereo unspecified)	7.76 µM (inactive)	4.2 µM (inactive)	4.74 µM (inactive)	4.13 µM (inactive)	14.3 µM (inactive)	2.78 µM (inactive)	1.75 µM (inactive)	20.2 µM (inactive)	26.7 µM (inactive)	8.85 µM (inactive)	2.94 µM (inactive)	5.85 µM (inactive)	21.4 µM (inactive)	10.3 µM (inactive)	19.8 µM (inactive)	2.7 µM (inactive)	15.2 µM (inactive)	8.41 µM (inactive)	7.41 µM (inactive)
Cc1cc(C)c2c(n1)S(=O)(=O)N(CCCN1CCN(c3cccc(C(F)(F)F)c3)CC1)c1c-2nn(C)c1C	> 100 µM (inactive)	60 µM (inactive)	> 100 µM (inactive)	40.5 µM (inactive)	> 100 µM (inactive)	38.5 µM (inactive)	61.8 µM (inactive)	> 100 µM (inactive)	> 100 µM (inactive)	55.2 µM (inactive)	52.6 µM (inactive)	97.5 µM (inactive)	> 100 µM (inactive)	> 100 µM (inactive)	52.8 µM (inactive)	43.1 µM (inactive)	> 100 µM (inactive)	> 100 µM (inactive)	> 100 µM (inactive)
COc1ccc(N2C=Nn3c(nc4sc5c(c4c3=O)CCCC5)C2)cc1	73.6 µM (inactive)	> 100 µM (inactive)	> 100 µM (inactive)	> 100 µM (inactive)	21.3 µM (inactive)	> 100 µM (inactive)	19.4 µM (inactive)	8.77 µM (inactive)	19.2 µM (inactive)	> 100 µM (inactive)	33.6 µM (inactive)	> 100 µM (inactive)	28.2 µM (inactive)	47.8 µM (inactive)	> 100 µM (inactive)	40.4 µM (inactive)	14 µM (inactive)	51.4 µM (inactive)	77.1 µM (inactive)
On1c(-c2ccccc2)nc2ccccc2c1=S	10.3 µM (inactive)	7.41 µM (inactive)	7.64 µM (inactive)	7.43 µM (inactive)	8.75 µM (inactive)	6.9 µM (inactive)	2.7 µM (inactive)	19.3 µM (inactive)	3.47 µM (inactive)	0.493 µM (active)	0.632 µM (active)	7.13 µM (inactive)	12.3 µM (inactive)	2.4 µM (inactive)	3.18 µM (inactive)	5.48 µM (inactive)	42.2 µM (inactive)	4 µM (inactive)	> 100 µM (inactive)
CC[C@@H](/C=C\CCC1(C[C@@H](N)CCC=C(C)C)OCCO1)O[Si](C(C)C)(C(C)C)C(C)C	15.6 µM (inactive)	18 µM (inactive)	19.8 µM (inactive)	18.4 µM (inactive)	17.3 µM (inactive)	16.3 µM (inactive)	17.1 µM (inactive)	18.9 µM (inactive)	19.1 µM (inactive)	15.8 µM (inactive)	4.97 µM (inactive)	17.3 µM (inactive)	18.5 µM (inactive)	13 µM (inactive)	18.1 µM (inactive)	18.8 µM (inactive)	18.2 µM (inactive)	11.9 µM (inactive)	17.1 µM (inactive)
C/C=C(\C)[C@@H](O)C(=O)O[C@@H]1CC(C(C)(C)O)[C@](C)(CCC(=O)OC)[C@H]2[C@H](OC(=O)[C@H](O)[C@H](C)CC)C[C@]3(C)C(=CC[C@H]3[C@H]3CO[C@H](C=C(C)C)C3)[C@]12C (stereo partly specified)	15.3 µM (inactive)	21.6 µM (inactive)	29 µM (inactive)	22.1 µM (inactive)	17.6 µM (inactive)	19.3 µM (inactive)	18 µM (inactive)	15.4 µM (inactive)	18.5 µM (inactive)	30.8 µM (inactive)	17.6 µM (inactive)			16.2 µM (inactive)	24.8 µM (inactive)	27.7 µM (inactive)	22.4 µM (inactive)	17.7 µM (inactive)	24.2 µM (inactive)
